Columns and labels:
MDR xenografts = system: MDR xenografts; set-up: method as in Ripamonti et al, 1992; conditions: animal studies, ref Ripamonti et al, 1992; cited from earlier work
[1] = system: patients with various intrinsically anthracycline resistant solid tumours; conditions: 1998, cited from earlier work
[2] = system: various tumour cell lines, including MDR tumour cell lines; set-up: method as in ref Danesi et al, 1993; Kuhl et al, 1993; van der Graaf et al, 1995; Bakker et al, 1997; conditions: ref Danesi et al, 1993, Kuhl et al, van der Graaf et al, 1995, Bakker et al, 1997; cited from earlier work
rats = system: rats; set-up: method as in Danesi et al, 1993; conditions: ref Danesi et al, 1993; cited from earlier work
patients = system: patients; set-up: method as in Vasey et al, 1995; conditions: ref Vasey et al, 1995, cited from earlier work
[3] = Pharmacokinetics in plasma and urine, first cycle, non-compartmental analysis
Excerpt: (§1) Nowadays, anthracyclines play an important role in chemothera- peutic treatment of a wide variety of tumour types. The clinical use of anthracyclines is limited by their toxicity profile, especially irreversible, cumulative dose-related cardiotoxicity, and by intrinsic or acquired resistance of tumours cells. Mechanisms of this resistance consist of several pathways, such as overexpression of drug efflux pumps (i.e. P-glycoprotein), decrease in topoiso- merase II enzyme levels, and increase in cellular detoxifying capacity (Kaye and Merry, 1985; Deffie et al, 1989; de Jong et al, 1990; Ford and Hait, 1990; Roninson, 1997). Morpholinyl anthracyclines, such as methoxymorpholino doxorubicin (MMRDX or PNU-152243), were synthesized in search for new anthracyclines with at least partially novel modes of action, including activity on multidrug-resistant (MDR) tumours. MMRDX is a novel doxorubicin derivative in which the nitrogen atom of the daunosamine is enclosed in a methoxymor- pholino ring (Figure 1). […] The working mechanism of morpholinyl anthracyclines appears to be different from other anthracyclines. Morpholinyl anthracyclines inhibit ribosomal gene transcription as well as topoisomerase I-mediated DNA-cleavage (Wassermann et al, 1988, 1990). […] Metabolic conversion of MMRDX by human liver microsomes and NADPH potentiated the cytotoxicity in an ovarian carcinoma cell line (Lau et al, 1994). […] Therefore, we decided to perform a phase I study with MMRDX administered as a 3 h infusion every 4 weeks in order to try to increase the MTD as compared with bolus administration. In addition, we assessed pharmacokinetics of prolonged MMRDX-infusion. A prolonged methoxymorpholino doxorubicin (PNU- 152243 or MMRDX) infusion schedule in patients with solid tumours: a phase 1 and pharmacokinetic study E Fokkema1 , J Verweij2 , AT van Oosterom3 , DRA Uges1 , R Spinelli4 , O Valota4 , EGE de Vries1 and HJM Groen1 1 Department of Pulmonology, Department of Pharmacy, Department of Internal Medicine, University Hospital Groningen, PO Box 30.001, 9700 RB Groningen, The Netherlands; 2 Rotterdam Cancer Institute and University Hospital, Rotterdam, The Netherlands; 3 University Hospital Leuven, Belgium; 4 Pharmacia & Upjohn, Milan, Italy Summary The aim of this phase I study was to assess feasibility, pharmacokinetics and toxicity of methoxymorpholino doxorubicin (MMRDX or PNU-152243) administered as a 3 h intravenous infusion once every 4 weeks. […] The first cohort of patients was treated with 1 mg m-2 of MMRDX. The next cohorts received 1.25 mg m-2 and 1.5 mg m-2 respectively. […] (c) 2000 Cancer Research Campaign Keywords: methoxymorpholino doxorubicin; pharmacokinetics; phase I study 767 Received 6 January 1999 Revised 2 August 1999 Accepted 25 August 1999 Correspondence to: EGE de Vries British Journal of Cancer (2000) 82(4), 767-771 (c) 2000 Cancer Research Campaign DOI: 10.1054/ bjoc.1999.0996, available online at http://www.idealibrary.com on PATIENTS AND METHODS Patients The study was performed between December 1994 and June 1996. Patients with intrinsic anthracycline-resistant tumours were accrued in three different centres in Belgium and The Netherlands.

[4] = set-up: method as in ref Johnston and Glazer, 1983; Acton et al, 1984; Streeter et al, 1986; conditions: ref Johnston and Glazer, 1983; Acton et al, 1984; Streeter et al, 1986; cited from earlier work
[5] = system: patients with intrinsic anthracycline-resistant tumours; assay: Phase I toxicity (CTC grading), MMRDX as 3 h intravenous infusion once every 4 weeks
Excerpt: as §1

COc1cccc2c1C(=O)c1c(O)c3c(c(O)c1C2=O)C[C@@](O)(C(=O)CO)C[C@@H]3O[C@H]1C[C@H](N2CCO[C@H](OC)C2)[C@H](O)[C@H](C)O1 [MMRDX, methoxymorpholino doxorubicin]
Activity against MDR xenografts (MDR xenografts): showed activity
Grade IV neutropenia ([1]; 1.5 mg m-2 bolus every 4 weeks, ref Bakker et al): 9 % of administered cycles
Tumour responses ([1]; NSCLC, ref Bakker et al): one partial response in one out of 17 NSCLC
Plasma clearance ([1]; bolus, ref Bakker et al): 620 ml min-1 m-2
t1/2 of the elimination phase ([1]; bolus, ref Bakker et al): 49 h
Patients taken off study due to a decrease in LVEF ([1]; phase II study, ref Vasey et al, 1995, Bakker et al): two patients
Cytotoxic activity in vitro [2]: potent cytotoxic activity
Cardiotoxicity in rats (rats): no substantial cardiotoxicity
Grade IV neutropenia (patients; 1.5 mg m-2 bolus every 3 weeks): 14 % of administered cycles
Dose-limiting toxicity (DLT) (patients; bolus injection every 3 weeks): myelosuppression (neutropenia and thrombocytopenia)
Maximum tolerated dose (MTD) (patients; bolus injection every 3 weeks): 1.5 mg m-2
Plasma clearance (patients; bolus): 650 ml min-1 m-2
t1/2 after a rapid distribution phase (patients; bolus): 40 h
Tumour responses (patients; head and neck (one out of three), cervical cancer (one out of five), colorectal cancer (two out of 20)): four responses
% Dose in urine, median (range) ([3]; 1.0 mg m-2 (n = 3)): 1.6 (0.53-1.74) %
% Dose in urine, median (range) ([3]; 1.25 mg m-2 (n = 6)): 2.1 (0.35-2.6) %
Cl (plasma clearance), median (range) ([3]; 1.25 mg m-2, n = 4): 649.0 (506.3-812.3) ml min-1 m-2
Vss, median (range) ([3]; 1.25 mg m-2, n = 4): 2891.5 (1742-3371) l m-2
Vz, median (range) ([3]; 1.25 mg m-2, n = 4): 3942.5 (1997-4540) l m-2
t1/2 z (printed 'tA z'), median (range) ([3]; 1.25 mg m-2, n = 4): 60.9 (45.6-88.8) h
% Dose in urine, median (range) ([3]; 1.5 mg m-2 (n = 3)): 2.47 (1.71-2.49) %
Cl (plasma clearance), median (range) ([3]; 1.5 mg m-2, n = 2): 741.2 (659-823.2) ml min-1 m-2
Vss, median (range) ([3]; 1.5 mg m-2, n = 2): 2693.0 (2585-2801) l m-2
Vz, median (range) ([3]; 1.5 mg m-2, n = 2): 2908.5 (2574-3243) l m-2
t1/2 z (printed 'tA z'), median (range) ([3]; 1.5 mg m-2, n = 2): 46.5 (36.1-56.9) h
Renal excretion ([3]; 3 h i.v. infusion): negligible
Correlation between AUC0-tz or Cmax and nadirs of haemoglobin, platelets, leucocytes and neutrophils ([3]; pharmacodynamic analysis, linear regression, first cycle): no correlation
AUC 0-tz, median (range) ([3]; plasma, 1.0 mg m-2 (n = 3)): 9.4 (8.3-18.3) ng h ml-1
Cmax, median (range) ([3]; plasma, 1.0 mg m-2 (n = 3)): 2.8 (1.8-6.2) ng ml-1
Cmax, one patient with high value ([3]; plasma, 1 mg m-2, one patient): 6.17 ng/mL
AUC 0-tz, median (range) ([3]; plasma, 1.25 mg m-2 (n = 6)): 15.1 (10.1-30.4) ng h ml-1
Cmax, median (range) ([3]; plasma, 1.25 mg m-2 (n = 6)): 2.3 (1.1-2.7) ng ml-1
AUC 0-tz, median (range) ([3]; plasma, 1.5 mg m-2 (n = 3)): 21.4 (5.7-26.9) ng h ml-1
Cmax, median (range) ([3]; plasma, 1.5 mg m-2 (n = 3)): 1.4 (1.2-2.1) ng ml-1
Cmax, all other patients ([3]; plasma, all dose levels): around 2.0 ng ml-1
AUC0-infinity from non-compartmental analysis ([3]; similar for all dose levels, seven patients): around 30 ng h ml-1
Lipophilicity [4]: high lipophilicity
Non-haematological toxicity ([5]; 1 mg m-2): did not exceed CTC grade II
Median (range) nadir of leucocytes over all evaluable cycles ([5]; 1.0 mg m-2): 6.0 (3.9-15.1) x 109 l-1
Median (range) nadir of neutrophils over all evaluable cycles ([5]; 1.0 mg m-2): 3.3 (2.4-12.7) x 109 l-1
Median (range) nadir of platelets over all evaluable cycles ([5]; 1.0 mg m-2): 197 (130-356) x 109 1-1
Neutrophils, CTC grade III toxicity ([5]; 1.0 mg m-2, 7 cycles): 0 % of total number of cycles
Neutrophils, CTC grade IV toxicity ([5]; 1.0 mg m-2, 7 cycles): 0 % of total number of cycles
Leucocytes, CTC grade III toxicity ([5]; 1.0 mg m-2, 8 cycles): 0 % of total number of cycles
Leucocytes, CTC grade IV toxicity ([5]; 1.0 mg m-2, 8 cycles): 0 % of total number of cycles
Platelets, CTC grade III toxicity ([5]; 1.0 mg m-2, 8 cycles): 0 % of total number of cycles
Platelets, CTC grade IV toxicity ([5]; 1.0 mg m-2, 8 cycles): 0 % of total number of cycles
